Here are results for 4 molecules from paper PMC5199130 (Molecular Systems Biology, 2016).

Data set [1] deals with T1, MavQ (Legionella pneumophila, UniProt Q5ZRA8).
T1 construct: gene lpg2975

Data set [2] deals with RavJ (Lpg0944) 1–230, purified (Legionella pneumophila str. Philadelphia-1) (UniProt Q5ZWY9). Description: crystal structure.
Data set [3] deals with the molecule itself. Put plainly: crystal structure.

On to `Nc1ncnc2c1ncn2[C@@H]1O[C@H](COP(=O)(O)OP(=O)(O)OP(=O)(O)O)[C@@H](O)[C@H]1O` [ATP], for which the ADP-Glo kinase assay entry in data set [1] is on record as “wild‐type MavQ, but not the D147A mutant, possesses robust ATP hydrolysis activity”. Same read-out and setting: as for `CCCCCCCC(=O)OC[C@H](COP(=O)(O)O[C@@H]1[C@H](O)[C@H](O)[C@@H](O)[C@H](O)[C@H]1O)OC(=O)CCCCCCC` [PI diC8], the entry is “addition of phosphoinositide to this reaction increased the activity of the wild‐type MavQ fivefold”. As to “LegL1 (Lpg0945) 1–296, purified (from UniProt Q5ZWY8 1-296) (natural protein)”, the stoichiometry N – broadly, a count of units in the complex or per binding partner – in data set [2] was 1.

B1: Lem14 (Lpg1851) 1–220, purified and crystallised (natural protein)
chain: MSFELVAYEKLKGSIRESIITLIKSHNEKAKIIEDKLEYSVKEVSRERQPQVLVLLKTIELLDNSSKEPEDKARVLNALAYYIRDQIAATYKYTSPDNSDFYKSLTISLDLNKDNNPNREDLADMYSALEKFLRSHVYKNSDPRKGYLDKQPFAIKHYSVVDDILELSDRVHKLRHEIIIAARDLHLLQQKPKSSQGGLFSVPSGKEKVTDTHEVANHRL
On to B1, for which the “stoichiometry N” value in data set [3] was 2.
